Test [1] can be described thus: Cytotoxicity against human KB-3-1 cells by SRB assay. It counts as functional, cell-based. (Sulforhodamine B stains cellular protein and so reports cell mass.)
Test [2] can be described thus: Cytotoxicity against drug-resistant human KBV1 cells by SRB assay. It counts as functional, cell-based. To be noted: KB-V1.
Test [3] in a line: Cytotoxicity against drug-resistant human KBV1 cells in presence of 0.1 uM Vinblastine by SRB assay. It counts as functional, cell-based. As to conditions: KB-V1.
The subject of test [4] is MCF7. The test is described as follows: Cytotoxicity against human MCF7 cells by SRB assay. It counts as functional, cell-based.
Test [5] is described as follows: Cytotoxicity against drug-resistant human MCF7/ADR cells by SRB assay. It is filed as functional, cell-based. To be noted: NCI/ADR-RES.
Test [6] is described as follows: Cytotoxicity against drug-resistant human MCF7/ADR cells in presence of 10 uM Adriamycin by SRB assay. It counts as functional, cell-based. As to conditions: NCI/ADR-RES.
Test [7] deals with SNB-19. Description: Cytotoxicity against human SNB19 cells by SRB assay. It is filed as functional, cell-based.
Test [8] deals with SK-OV-3. The test is described as follows: Cytotoxicity against human SKOV3 cells by SRB assay. It counts as functional, cell-based.
The test system of test [9] is NCI-H23. The test is described as follows: Cytotoxicity against human NCI-H23 cells by SRB assay. It counts as functional, cell-based.
The subject of test [10] is UACC-62. The test is described as follows: Cytotoxicity against human UACC62 cells by SRB assay. It is filed as functional, cell-based.
The test system of test [11] is KM12. The test is described as follows: Cytotoxicity against human KM12 cells by SRB assay. It counts as functional, cell-based.
A short description of test [12]: Cytotoxicity against human MOLT cells by SRB assay. It is filed as functional, cell-based.
Test [13] concerns KBV1. The test is described as follows: Inhibition of P-gp-mediated multidrug resistance assessed as ratio of Adriamycin IC50 for drug-resistant human KBV1 cells to drug-sensitive human KB-3-1 cells at 3 uM. It counts as cell-based.
In test [14] the test system is KBV1. Description: Inhibition of P-gp-mediated multidrug resistance assessed as ratio of Vinblastine IC50 for drug-resistant human KBV1 cells to drug-sensitive human KB-3-1 cells at 3 uM. It is filed as cell-based.
The test system of test [15] is KBV1. Description: Inhibition of P-gp-mediated multidrug resistance assessed as ratio of Paclitaxel IC50 for drug-resistant human KBV1 cells to drug-sensitive human KB-3-1 cells at 3 uM. It is filed as cell-based.

These results are taken from ChEMBL document CHEMBL1158852, “A new sesquiterpene ester from Celastrus orbiculatus reversing multidrug resistance in cancer cells” (J Nat Prod, 1998).

Structures are written as SMILES.

For the compound `CC(=O)O[C@H]1CC[C@@H](C)[C@]23OC(C)(C)[C@H](C[C@H](OC(=O)c4ccccc4)[C@]12C)[C@H]3OC(=O)c1ccccc1`, the IC50 was determined as 9.26 µM in [1]; 13 µM in [2]; 1.36 µM in test [3]; 10.8 µM in test [4]; 14.4 µM in [5]; 1.39 µM in test [6]. The IC50 in test [7] is 18.3 µM; in test [8] it was 19.3 µM; in [9], 16.8 µM; in test [10] it was 12.9 µM; in test [11], 14.9 µM; in test [12], 3.05 µM. For the same compound, the results for the Ratio IC50 in [13], in test [14] and in test [15] were 98.8, 63.9 and 37.1, respectively.
As to `CC(=O)O[C@H]1C[C@@H](C)[C@]23OC(C)(C)[C@H](C[C@H](OC(=O)c4ccccc4)[C@]2(C)[C@H]1OC(C)=O)[C@H]3OC(=O)c1ccccc1` [ORBICULIN A], the IC50 stood at 49 µM in [1]; 64.9 µM in test [2]; 0.8 µM in [3]; 53.2 µM in test [4]; 61.9 µM in test [5]; 1.15 µM in test [6]. Further, the IC50 in test [7] was determined as 40.8 µM; in test [8] it was 48.4 µM; in [9], 41.9 µM; in [10] it was 38.8 µM; in test [11], 38.6 µM; in test [12] it was 7.33 µM.

In general, IC50 refers to the midpoint of a concentration-inhibition curve.
